In ChEMBL document CHEMBL1144834, “Acremolides A-D, lipodepsipeptides from an Australian marine-derived fungus, Acremonium sp” (2008) one finds Activity and LD99 data, which are given here for seven compounds.

Test [1] concerns NS1. The experiment in a line: (§1) Cytotoxicity against mouse NS1 cells. The class given is functional.
Test [2] relates to Bacillus subtilis. Kind of test: Antibacterial activity against Bacillus subtilis. It counts as functional, organism-based.
In test [3] the test system is Candida albicans. The experiment in a line: Antifungal activity against Candida albicans. The class given is functional, organism-based.
The nature of test [4]: as §1. The class given is functional.

The source made the active and inactive calls. No cut-off for these calls is given here.

Turning to `CC(O)CCCCC(C)C1CC(O)C(C)C(=O)N[C@H](C(C)C)C(=O)N2CCC[C@H]2C(=O)O1` (stereo not given in full), the result in test [1], in test [2] and in test [3] was inactive.

On to `C/C=C/c1cccc(O)c1CO`, for which the result in test [1] was inactive.

For the compound `CC(=O)O[C@H]1C(=O)/C=C/C(=O)[C@@]23C(=O)N[C@@H](Cc4c[nH]c5ccccc45)[C@@H]2C(C)=C(C)[C@@H](O)[C@@H]3/C=C/C[C@H](C)/C=C\1C` [19-O-ACETYLCHAETOGLOBOSIN B], the LD99 in test [4] stood at 1.6 µg/mL.

For `CC(=O)CCCCC(C)C1CC(O)C(C)C(=O)N[C@H](Cc2ccccc2)C(=O)N2CCC[C@H]2C(=O)O1` (stereo not given in full), the outcome in test [1], in test [2] and in test [3] was inactive.

In test [4], `C=C1[C@@H](C)[C@H]2[C@H](Cc3c[nH]c4ccccc34)NC(=O)[C@]23C(=O)/C=C/C(=O)[C@H](OC(C)=O)/C(C)=C\[C@@H](C)C/C=C/[C@H]3[C@@H]1O` came in with an LD99 of 0.8 µg/mL.

For `CC(O)CCCCC(C)C1CC(O)C(C)C(=O)N[C@H](Cc2ccccc2)C(=O)N2CCC[C@H]2C(=O)O1` (stereo not given in full), the result in test [1], in test [2] and in test [3] was inactive.

As for `CC[C@@H](C)[C@H]1NC(=O)C(C)C(O)CC(C(C)CCCCC(C)O)OC(=O)[C@@H]2CCCN2C1=O` (stereo not given in full), the outcome in test [1], in test [2] and in test [3] was inactive.
